Like-named read-outs stand apart in the source and are kept apart here.
Columns and labels:
Rhesus PDE2A3 = Rhesus PDE2A3 (Macaca mulatta, UniProt B3VTJ2); experiment: PDE2 fluorescence polarization (IMAP FP) inhibition assay, rhesus enzyme; type: biochemical, rhesus macaque
Method in brief: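 IMAP FP (mP from parallel and perpendicular fluorescence against substrate-only control) was read ≥1 h after adding binding reagent. The preceding 60 min room-temperature reaction contained FAM-cAMP (50 nM) and cGMP (1 uM) in pH 7.2 Tris buffer with MgCl2 and DTT. Enzyme was supernatant of sonicated AD293 cells expressing rhesus PDE2A3; compounds were 3-fold titrated, DMSO 1% final.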

human PDE2A1 = human PDE2A1 (Homo sapiens (Human), UniProt O00408); experiment: IMAP FP PDE selectivity panel, human PDE2A1; type: biochemical
Method in brief: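 IMAP FP format: substrate 50 nM FAM-cAMP plus 1000 nM cGMP, enzyme (insect-cell GST-tagged human PDE2A1) at ~20% conversion, 60 min reaction at room temperature. Apparent inhibition constants calculated from parallel/perpendicular fluorescence with KM 10,000 nM.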

[1] = Rhesus PDE2, Lab B, read-out: Rhesus PDE2 Ki (nM) - Lab B
[2] = Human PDE2, Lab B, read-out: Human PDE2 Ki (nM) - Lab B
[3] = Rhesus PDE2, Lab A, read-out: Rhesus PDE2 Ki (nM) - Lab A
[4] = Human PDE2, Lab A, read-out: Human PDE2 Ki (nM) - Lab A

Chain of human PDE2A1 (O00408 other isoform, or with tags, fused parts or gaps): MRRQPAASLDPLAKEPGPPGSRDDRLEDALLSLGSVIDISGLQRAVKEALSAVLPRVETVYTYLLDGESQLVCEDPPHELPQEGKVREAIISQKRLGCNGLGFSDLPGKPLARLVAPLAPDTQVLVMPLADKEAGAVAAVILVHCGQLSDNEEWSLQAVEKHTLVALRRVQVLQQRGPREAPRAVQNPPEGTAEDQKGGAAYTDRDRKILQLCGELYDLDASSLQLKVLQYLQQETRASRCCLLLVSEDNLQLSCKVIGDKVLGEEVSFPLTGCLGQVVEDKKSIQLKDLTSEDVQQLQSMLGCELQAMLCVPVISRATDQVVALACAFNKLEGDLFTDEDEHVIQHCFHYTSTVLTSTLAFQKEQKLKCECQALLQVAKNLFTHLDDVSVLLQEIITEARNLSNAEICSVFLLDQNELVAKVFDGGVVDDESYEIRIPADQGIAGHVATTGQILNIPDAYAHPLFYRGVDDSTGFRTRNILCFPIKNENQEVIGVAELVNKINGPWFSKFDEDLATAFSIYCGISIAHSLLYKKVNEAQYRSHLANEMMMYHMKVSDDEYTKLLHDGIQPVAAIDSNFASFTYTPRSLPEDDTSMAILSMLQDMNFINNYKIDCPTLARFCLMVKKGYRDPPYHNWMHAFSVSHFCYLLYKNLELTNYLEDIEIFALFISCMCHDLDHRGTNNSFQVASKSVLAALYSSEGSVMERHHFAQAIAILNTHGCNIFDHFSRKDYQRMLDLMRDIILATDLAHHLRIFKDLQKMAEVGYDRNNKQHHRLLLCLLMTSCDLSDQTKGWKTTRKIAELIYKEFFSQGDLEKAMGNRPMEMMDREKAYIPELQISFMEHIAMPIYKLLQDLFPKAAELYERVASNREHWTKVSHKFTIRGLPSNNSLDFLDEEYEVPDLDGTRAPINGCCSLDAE
Chain of Rhesus PDE2A3 (B3VTJ2 1-941): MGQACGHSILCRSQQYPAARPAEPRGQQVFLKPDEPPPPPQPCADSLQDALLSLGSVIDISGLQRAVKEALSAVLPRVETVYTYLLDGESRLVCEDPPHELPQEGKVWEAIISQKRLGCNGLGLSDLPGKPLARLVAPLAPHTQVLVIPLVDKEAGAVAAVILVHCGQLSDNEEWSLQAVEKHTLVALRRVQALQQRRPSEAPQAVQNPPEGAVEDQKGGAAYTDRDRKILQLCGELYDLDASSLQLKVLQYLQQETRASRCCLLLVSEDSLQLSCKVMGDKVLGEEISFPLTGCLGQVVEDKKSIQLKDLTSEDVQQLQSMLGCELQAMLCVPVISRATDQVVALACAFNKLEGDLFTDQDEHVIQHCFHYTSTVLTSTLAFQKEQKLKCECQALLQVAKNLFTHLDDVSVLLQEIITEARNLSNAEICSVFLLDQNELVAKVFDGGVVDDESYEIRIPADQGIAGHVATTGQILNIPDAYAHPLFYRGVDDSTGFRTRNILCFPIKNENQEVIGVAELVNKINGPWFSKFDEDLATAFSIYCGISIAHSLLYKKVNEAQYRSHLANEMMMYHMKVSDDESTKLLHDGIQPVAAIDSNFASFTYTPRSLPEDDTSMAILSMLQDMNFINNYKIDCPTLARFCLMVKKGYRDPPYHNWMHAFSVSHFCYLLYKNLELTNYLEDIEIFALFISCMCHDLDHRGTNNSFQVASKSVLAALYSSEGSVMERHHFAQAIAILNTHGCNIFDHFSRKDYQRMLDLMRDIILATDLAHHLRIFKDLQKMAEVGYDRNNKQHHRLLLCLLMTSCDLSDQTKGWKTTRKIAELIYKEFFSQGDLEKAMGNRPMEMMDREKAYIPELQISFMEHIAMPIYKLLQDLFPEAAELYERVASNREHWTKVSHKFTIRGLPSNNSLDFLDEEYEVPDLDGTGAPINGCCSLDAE

SMILES	Ki (Rhesus PDE2A3; [1]) [nM]	Ki (human PDE2A1; [2]) [nM]	Ki (Rhesus PDE2A3; [3]) [nM]	Ki (human PDE2A1; [4]) [nM]
CC[C@@H](NC(=O)c1cc(=O)[nH]c(-c2ccccc2)n1)c1ccc(C(F)(F)F)c(F)c1 [Example 420, N-{(1R)-1-[3-fluoro-4-(trifluoromethyl)phenyl]propyl}-6-oxo-2-phenyl-1,6-dihydropyrimidine-4-carboxamide]	7.3	5.9		
O=C(N[C@@H](c1ccc(S(F)(F)(F)(F)F)cc1)C1CC1)c1cc(=O)[nH]c(-c2ncccn2)n1 [Example 412, N-{(R)-cyclopropyl[4-(pentafluoro-λ^6-sulfanyl)phenyl]methyl}-6-oxo-1,6-dihydro-2,2′-bipyrimidine-4-carboxamide]	9.9	10		
COc1ccc(Cc2nc(C(=O)N[C@@H](c3ccc(OC(F)(F)F)c(F)c3)C3CC3)cc(=O)[nH]2)cc1F [Example 521, N-{(R)-cyclopropyl[3-fluoro-4-(trifluoromethoxy)phenyl]methyl}-2-(3-fluoro-4-methoxybenzyl)-6-oxo-1,6-dihydropyrimidine-4-carboxamide]	2.3	2.2		
CC(C)[C@@H](NC(=O)c1cc(=O)[nH]c(-c2ccccc2)n1)c1ccc(OC(F)(F)F)cc1 [Example 166, N-{(1R)-2-methyl-1-[4-(trifluoromethoxy)phenyl]propyl}-6-oxo-2-phenyl-1,6-dihydropyrimidine-4-carboxamide]			3.3	2.1
CC(C)[C@@H](NC(=O)c1cc(=O)[nH]c(-c2ncccn2)n1)c1ccc(C(F)(F)F)c(F)c1 [Example 248, N-{(1R)-1-[3-fluoro-4-(trifluoromethyl)phenyl]-2-methylpropyl}-6-oxo-1,6-dihydro-2,2′-bipyrimidine-4-carboxamide]	3.4	3.5	2	
O=C(NC1(c2ccc(SC(F)(F)F)cc2)CC1)c1cc(=O)[nH]c(-c2ncccn2)n1 [Example 77, 6-oxo-N-(1-{4-[(trifluoromethyl)sulfanyl]phenyl}cyclopropyl)-1,6-dihydro-2,2′-bipyrimidine-4-carboxamide]	14	21	19	
C[C@@H](NC(=O)c1cc(=O)[nH]c(-c2ccccc2)n1)c1ccc(C2CC2)cc1 [Example 423, N-[(1R)-1-(4-cyclopropylphenyl)ethyl]-6-oxo-2-phenyl-1,6-dihydropyrimidine-4-carboxamide]		5.6	3	
C[C@@H](NC(=O)c1cc(=O)[nH]c(-c2ncccn2)n1)c1ccc(SC(F)(F)F)c(F)c1 [Example 260, N-[(1R)-1-{3-fluoro-4-[(trifluoromethyl)sulfanyl]phenyl}ethyl]-6-oxo-1,6-dihydro-2,2′-bipyrimidine-4-carboxamide]	1.8	1.8	1	
COc1cc(C(C)NC(=O)c2cc(=O)[nH]c(-c3ccccc3)n2)cc(OC)c1OC (stereo not shown) [Example 351, 6-oxo-2-phenyl-N-[1-(3,4,5-trimethoxyphenyl)ethyl]-1,6-dihydropyrimidine-4-carboxamide]	217	224	124	
Cc1nc(C(=O)N[C@H](C)c2ccc(C3CC3)c(F)c2)cc(=O)[nH]1 [Example 620, N-[(1R)-1-(4-cyclopropyl-3-fluorophenyl)ethyl]-2-methyl-6-oxo-1,6-dihydropyrimidine-4-carboxamide]	15	19		
Cc1nc(C(=O)NC2(c3ccc(SC(F)(F)F)cc3)CCC2)cc(=O)[nH]1 [Example 49, 2-methyl-6-oxo-N-(1-{4-[(trifluoromethyl)sulfanyl]phenyl}cyclobutyl)-1,6-dihydropyrimidine-4-carboxamide]			79	45
C[C@@H](NC(=O)c1cc(=O)[nH]c(-c2ccccc2)n1)c1ccc(C(F)(F)F)c(F)c1 [Example 148, N-{(1R)-1-[3-fluoro-4-(trifluoromethyl)phenyl]ethyl}-6-oxo-2-phenyl-1,6-dihydropyrimidine-4-carboxamide]			5.2	2.6
Cc1nc(C(=O)N[C@@H](c2ccc(C3CC3)cc2)C2CC2)cc(=O)[nH]1 [Example 50, N-[(R)-cyclopropyl(4-cyclopropylphenyl)methyl]-2-methyl-6-oxo-1,6-dihydropyrimidine-4-carboxamide]	11	8.1	8	
C[C@@H](NC(=O)c1cc(=O)[nH]c(-c2ccccc2)n1)c1ccc(SC(F)(F)F)cc1 [Example 142, 6-Oxo-2-phenyl-N-[(1R)-1-{4-[(trifluoromethyl)sulfanyl]phenyl}ethyl]-1,6-dihydropyrimidine-4-carboxamide]			1.4	1.5
CC(C)[C@@H](NC(=O)c1cc(=O)[nH]c(C2CC2)n1)c1ccc(OC(F)(F)F)c(F)c1 [Example 128, 2-cyclopropyl-N-{(1R)-1-[3-fluoro-4-(trifluoromethoxy)phenyl]-2-methylpropyl}-6-oxo-1,6-dihydropyrimidine-4-carboxamide]			2	1.2
COc1ccc(Cc2nc(C(=O)N[C@@H](c3ccc(OC(F)(F)F)c(F)c3)C(C)(C)C)cc(=O)[nH]2)cc1 [Example 464, N-{(1R)-1-[3-fluoro-4-(trifluoromethoxy)phenyl]-2,2-dimethylpropyl}-2-(4-methoxybenzyl)-6-oxo-1,6-dihydropyrimidine-4-carboxamide]	0.6	0.69		
CC[C@@H](NC(=O)c1cc(=O)[nH]c(C(C)(C)c2ccc(OC)cc2)n1)c1ccc(OC(F)(F)F)c(F)c1 [Example 504, N-{(1R)-1-[3-fluoro-4-(trifluoromethoxy)phenyl]propyl}-2-[1-(4-methoxyphenyl)-1-methylethyl]-6-oxo-1,6-dihydropyrimidine-4-carboxamide]	42	30		
Cc1nc(C(=O)NC(C)c2ccc(C3CC3)cc2)cc(=O)[nH]1 (stereo not shown) [Example 42, N-[1-(4-cyclopropylphenyl)ethyl]-2-methyl-6-oxo-1,6-dihydropyrimidine-4-carboxamide]			72	31
CC(C)(C)[C@@H](NC(=O)c1cc(=O)[nH]c(-c2ccccc2)n1)c1ccc(OC(F)F)cc1 [Example 449, N-{(1R)-1-[4-(difluoromethoxy)phenyl]-2,2-dimethylpropyl}-6-oxo-2-phenyl-1,6-dihydropyrimidine-4-carboxamide]	2.6	1.8		
Cc1nc(C(=O)NC2(c3ccc(OC(F)(F)F)c(F)c3)CC2)cc(=O)[nH]1 [Example 67, N-{1-[3-fluoro-4-(trifluoromethoxy)phenyl]cyclopropyl}-2-methyl-6-oxo-1,6-dihydropyrimidine-4-carboxamide]	19	12	16	~9.6
N#CC(NC(=O)c1cc(=O)[nH]c(-c2ccccc2)n1)c1ccc(C(F)(F)F)cc1 (stereo not shown) [Example 413, N-{cyano[4-(trifluoromethyl)phenyl]methyl}-6-oxo-2-phenyl-1,6-dihydropyrimidine-4-carboxamide]	105	126		
Cc1nc(C(=O)NC2(c3ccc(SC(F)(F)F)cc3)CC2)cc(=O)[nH]1 [Example 35, 2-Methyl-6-oxo-N-(1-(4-((trifluoromethyl)thio)phenyl)cyclopropyl)-1,6-dihydroy primidine-4-carboxamide]			19	15
CC(C)(NC(=O)c1cc(=O)[nH]c(-c2ccccc2)n1)c1ccc(Br)cc1 [Example 340, N-[1-(4-bromophenyl)-1-methylethyl]-6-oxo-2-phenyl-1,6-dihydropyrimidine-4-carboxamide]	109	83	49	
Cc1nc(C(=O)NC(C)c2ccc(C(C)(C)C(F)(F)F)cc2)cc(=O)[nH]1 (single isomer, unassigned) [Example 694, (S)- or (R)-2-methyl-6-oxo-N-(1-(4-(1,1,1-trifluoro-2-methylpropan-2-yl)phenyl)ethyl)-1,6-dihydropyrimidine-4-carboxamide]	> 2970	> 1240		
Cc1nc(C(=O)N[C@H](C)c2ccc(C3(C)CC3)cc2)cc(=O)[nH]1 [Example 530, 2-methyl-N-{(1R)-1-[4-(1-methylcyclopropyl)phenyl]ethyl}-6-oxo-1,6-dihydropyrimidine-4-carboxamide]	47	28		
COc1ccc(Cc2nc(C(=O)N[C@@H](c3ccc(C(F)(F)F)c(F)c3)C(C)C)cc(=O)[nH]2)cc1F [Example 514, 2-(3-fluoro-4-methoxybenzyl)-N-{(1R)-1-[3-fluoro-4-(trifluoromethyl)phenyl]-2-methylpropyl}-6-oxo-1,6-dihydropyrimidine-4-carboxamide]	2.2	1.8		
O=C(NC1(c2ccc(SC(F)(F)F)cc2)CCC1)c1cc(=O)[nH]c(-c2ccccc2)n1 [Example 171, 6-oxo-2-phenyl-N-(1-{4-[(trifluoromethyl)sulfanyl]phenyl}cyclobutyl)-1,6-dihydropyrimidine-4-carboxamide]			28	32
COc1ccc(Cc2nc(C(=O)N[C@@H](c3ccc(OC(F)(F)F)cc3)C(C)(C)C)cc(=O)[nH]2)cc1F [Example 509, N-{(1R)-2,2-dimethyl-1-[4-(trifluoromethoxy)phenyl]propyl}-2-(3-fluoro-4-methoxybenzyl)-6-oxo-1,6-dihydropyrimidine-4-carboxamide]	0.88	0.99		
